Values quoted from earlier work, collected in patent US20050220774A1, “Methods of inducing differentiation in ex vivo expanded stem cells” (priority 2002, published 2005).

How the values were obtained:
stem cells = details: PCT/IL03/00064

NCCNCCNCCNCCN [TEPA, tetraethylenepentamine]
clonability of long-term cultures (CD34+ cells; long-term cultures (3-5 weeks)): more efficient clonability
cell clonability and percentage of CD34+ cells (CD34+ cells; with early-acting or early and late acting cytokines): significant increases

NC(=O)c1cccnc1 [nicotinamide]
differentiation of stem cells ex vivo (stem cells): represses the process of differentiation of stem cells
